Results from patent US11896678B2, “Compositions and methods for treatment of peroxisome proliferator-activated receptor gamma (PPARG) activated cancer” (THE BROAD INSTITUTE, INC., priority 2017, dated 2024).

Columns and labels:
[1] = target: T1, PPARG (Homo sapiens, UniProt P37231); assay: RT112/84 FABP4-NLucP reporter gene assay, unstimulated; assay type: cell-based
T1 construct: endogenous in cells; host or cells: RT112/84 bladder cancer cells (FABP4-NLucP knock-in clone)
T1 sequence (P37231 1-477 isoform P37231-2): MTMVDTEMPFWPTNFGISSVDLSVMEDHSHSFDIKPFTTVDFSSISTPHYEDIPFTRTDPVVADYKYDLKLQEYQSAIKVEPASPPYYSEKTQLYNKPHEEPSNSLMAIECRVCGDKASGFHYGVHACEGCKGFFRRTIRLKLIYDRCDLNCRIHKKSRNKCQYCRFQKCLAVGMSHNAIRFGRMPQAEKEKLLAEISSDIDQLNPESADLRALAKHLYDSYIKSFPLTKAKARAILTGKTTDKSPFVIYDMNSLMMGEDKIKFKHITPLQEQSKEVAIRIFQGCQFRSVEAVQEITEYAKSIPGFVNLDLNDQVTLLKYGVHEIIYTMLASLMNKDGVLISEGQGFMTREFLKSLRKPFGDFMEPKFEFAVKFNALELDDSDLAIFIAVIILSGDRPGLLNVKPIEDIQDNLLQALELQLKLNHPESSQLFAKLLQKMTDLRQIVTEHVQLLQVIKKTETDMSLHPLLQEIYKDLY
Text: Next, a PPARG reporter cell line was engineered to enable higher throughput assays to evaluate PPARG transactivation. Briefly, a destabilized NanoLuc luciferase reporter gene was inserted into the 3′-UTR of the FABP4 gene in the RT112/84 bladder cancer cell line using CRISPR/Cas9 mediated homology-directed repair (FIG. 4A).
RT112-FABP4-NLucP Reporter Gene Assay: Reporter cell line was generated by engineering NanoLuc gene into the 3′ UTR of FABP4 in RT112/84 cells using CRISPR/Cas9 guided genome engineering. Single cell clones were generated and the clone with the widest dynamic range selected for use. Assays were performed by seeding 384-well plates with ˜10,000 cells per well in MEMalpha containing 10% FBS and dosing compounds at indicated concentration using HP D300 digital dispenser (HP/Tecan). 18-24 hours after dosing with compound, cells were assayed using NanoGlo Luciferase Assay Reagent (Promega Madison, WI) and plates were read using EnVision Multilabel Reader (PerkinElmer Waltham, MA).

[2] = system: 5637 cells; assay: Proliferation assay in PPARG-amplified 5637 cells; assay type: cell-based; conditions: Homo sapiens; data not shown
Description: To determine if treatment of PPARG-activated bladder cancer cell lines with PPARG modulators impacted viability, a variety of compounds were tested in proliferation assays.

[3] = system: UM-UC-9 cells; assay: Direct cell counting dose-response proliferation assay; assay type: cell-based, human
Description: To determine whether PPARG modulators affect the proliferation and/or viability of PPARG-activated bladder cancer cell lines, a direct cell counting-based assay was performed. This assay likely avoids potential artifacts associated with the use of an ATP content-based assay, given that PPAR modulators are known to regulate cellular metabolic activity. […] These IC50 values align well with the calculated IC50s from both the cell-based reporter gene assay (FIG. 8A) and the biochemical corepressor assay (FIG. 8D).
(§1) Proliferation Assays: To enable cell-counting experiments, cell lines were transduced with a lentiviral vector encoding nuclear-targeted GFP, TagGFP2-H2B (Evrogen), and stable pools generated following selection for puromycin resistance. Cell lines were maintained for at least 7 days following selection prior to expansion and seeding into 96- or 384-well plates for further analysis. For kinetic proliferation assays, 96-well plates (n 1% 4 per condition) were imaged and counted every two hours using IncuCyte Zoom (Essen BioScience). Media and compounds were replaced approximately every 3-4 days. For endpoint assays to measure dose-response, cells were plated in 384-well plates, dosed with compound, and upon reaching approximately 70% to 90% confluence in control wells, cells were either counted using fluorescence imaging (Incu-Cyte Zoom) or incubated with CyQuant (Thermo Fisher) at the indicated time and plates were read with a fluorescent plate reader.

[4] = system: UM-UC-9 cells; assay: Kinetic proliferation assay (IncuCyte), percent of DMSO control; assay type: cell-based, human; conditions: 100 nmol/L; DMSO control at 50% confluency
Text: This assay was expanded to include an additional 8 representative bladder cancer cell lines, including cell lines with PPARG amplification, RXRA p.S427F mutation, activated gene signature, and control cell lines with low level expression of PPARG and target genes. […] Representative data for the UM-UC-9 cell line are shown in FIG. 6B, and is tabulated for the tested bladder cancer cell lines in Table 1. […] Similar results were obtained with these cell lines in parallel studies using clonogenic assays to quantify colony-forming ability (FIG. 10).
as §1, with “Cell lines were maintained for at least 7 days following selection prior to expansion and seeding into 96- or 384-well plates for further analysis.” left out, “Media and compounds were replaced approximately every 3-4 days.” left out

[5] = system: PPARG-activated bladder cancer cell lines; assay: Proliferation assays in PPARG-activated bladder cancer cell lines; assay type: cell-based, human; conditions: 100 nM-500 nM
Description: A panel of bladder cancer cell lines with PPARG modulators in colony formation assays was then tested (FIG. 10), kinetic proliferation assays (IncuCyte Zoom; Essen Bioscience) using cell lines treated with a single concentration of compound (100 nM-500 nM), and end-point dose-response assays (CellTiter Glo or CyQuant).
This assay was expanded to include an additional 8 representative bladder cancer cell lines, including cell lines with PPARG amplification, RXRA p.S427F mutation, activated gene signature, and control cell lines with low level expression of PPARG and target genes. […] Representative data for the UM-UC-9 cell line are shown in FIG. 6B, and is tabulated for the tested bladder cancer cell lines in Table 1. […] This significant (P<0.01) preferential sensitivity to PPARG inverse-agonists, but not antagonists, is maintained across all of the PPARG-activated cell lines in the panel, including the RXRA p.S427F cell line, HT-1197 (41), the PPARG-amplified cell lines, 5637 and UM-UC-9, and the PPARG activation gene signature cell lines Cal29, UM-UC-1, and RT112/84 (FIG. 12). […] Similar results were obtained with these cell lines in parallel studies using clonogenic assays to quantify colony-forming ability (FIG. 10).
as §1

[6] = system: PPARG-activated pancreatic and colorectal cancer cell lines; assay: Kinetic proliferation assay in pancreatic and colorectal cancer cell lines; assay type: cell-based; conditions: 500 nM
Text: To enable cell-counting, cell lines were transduced with a lentiviral vector encoding nuclear-targeted GFP (TagGFP2-H2B), and stable pools generated following selection for puromycin-resistance. Cell lines were maintained for at least 7 days following selection prior to expansion and seeding into 96-well plates for further analysis. For kinetic proliferation assays, 96-well plates were imaged in phase-contrast and green fluorescence mode every two hours using IncuCyte Zoom (Essen BioScience, Ann Arbor MI). Using IncuCyte software, the number of fluorescent nuclei were counted to monitor quantitative changes in cell number over time. Media and compounds were replaced approximately every 3-4 days.
DMSO treatment was also included as a vehicle control.

[7] = target: T2, PPARG ligand-binding domain - SMRT/NCOR2 corepressor peptide (Homo sapiens, UniProt P37231); assay: TR-FRET corepressor assay, SMRT/NCOR2 peptide; assay type: biochemical
T2 construct: purchased ThermoFisher Scientific
T2 sequence (P37231 238-503 limits assumed): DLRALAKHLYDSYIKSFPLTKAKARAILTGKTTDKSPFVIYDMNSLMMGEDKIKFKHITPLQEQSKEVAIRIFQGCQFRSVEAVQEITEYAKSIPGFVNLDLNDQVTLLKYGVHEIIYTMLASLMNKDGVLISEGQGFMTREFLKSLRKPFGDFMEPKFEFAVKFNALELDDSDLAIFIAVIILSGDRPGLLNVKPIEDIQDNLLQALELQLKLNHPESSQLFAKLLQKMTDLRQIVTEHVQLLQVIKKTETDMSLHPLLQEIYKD
Description: (§2) To evaluate inverse-agonism, a TR-FRET PPARG co-repressor assay (ThermoFisher) that measures recruitment of a fluorescent NCOR1 or NCOR2 corepressor peptide to the PPARG ligand-binding domain was used (ThermoFisher).
To determine effects on interactions between PPARG and coregulators, PPARG modulators were tested in two TR-FRET biochemical interaction assays for agonism and inverse-agonism. Agonism was quantitated using a coactivator assay, which measured the interaction between the PPARG ligand-binding domain and a fluorescently-labeled peptide from TRAP220/MED1. […] To evaluate inverse-agonism biochemically, ligand-dependent interactions were measured between PPARG ligand-binding domain and corepressor peptides from NCoR/NCOR1 and SMRT/NCOR2.

[8] = target: T3, PPARG ligand-binding domain - NCoR/NCOR1 corepressor peptide (Homo sapiens, UniProt P37231); assay: TR-FRET corepressor assay, NCoR/NCOR1 peptide; assay type: biochemical; conditions: data not shown
T3 construct: purchased ThermoFisher Scientific
T3 sequence (P37231 238-503 limits assumed): T2 sequence (P37231 238-503 limits assumed)
Description: as §2
In addition to the PPARG-NCOR2 interaction assay described above, interactions between PPARG and a peptide from the corepressor NCOR1 were measured.

[9] = system: bladder cancer; conditions: rodents; cited from earlier work
[10] = target: T4, PPARG ligand-binding domain - TRAP220/MED1 coactivator peptide (Homo sapiens, UniProt P37231); assay: TR-FRET coactivator assay, TRAP220/MED1 peptide; assay type: biochemical
T4 construct: purchased ThermoFisher Scientific
T4 sequence (P37231 238-503 limits assumed): T2 sequence (P37231 238-503 limits assumed)

CCC(=O)NC[C@H](Cc1ccc(OCCc2nc(-c3ccccc3)oc2C)cc1)N/C(C)=C\C(=O)c1ccc(C(F)(F)F)cc1 [GW6471]
effect on unstimulated reporter [1]: modest inhibitory effect

CC1=C2C=C(C(=O)N[C@@H](C)c3ccc(C(C)(C)C)cc3)C=CC2N(Cc2ccc(Cl)c(O[C@@H](C)C(=O)O)c2)C1C (some centres unmarked) [SR10221]
IC50 [2]: 20 to 30 nM
effect on cell proliferation compared with DMSO control [3]: significantly reduced proliferation
IC50 ([3]; Homo sapiens, UM-UC-9, read-out: calculated IC50, proliferation): 16 nM
reduction of proliferation relative to control [4]: 80%
sensitivity of cell lines [5]: preferentially sensitive
sensitivity of cell lines [6]: preferentially sensitive
effect on PPARG-NCOR2 interaction [7]: induce interaction between PPARG and NCOR2
induced signal [8]: less than 2 fold

CCc1ccc(CCOc2ccc(CC3SC(=O)NC3=O)cc2)nc1 (centres unmarked) [pioglitazone]
carcinogenic effect, bladder cancer [9]: carcinogenic effect in rodents was also observed

CCCCCOc1cc2c(cc1-c1cc(/C=C/C(=O)O)ccc1O)C(C)(C)CCC2(C)C [UVI3003]
effect in coactivator assay [10]: minimal effect
